Tests used:
[1] = test system: DNA from bacteriophages T4αgt βgt dam^h dam1 and T6αgt; assay: McrBC cleavage of 5-hydroxymethylcytosine-containing phage DNA; assay type: biochemical, bacteriophages T4 and T6; settings: hmC DNA first treated with EcoRI or SspI, then McrBC with GTP
Procedure: (§1) Accordingly, the DNA Escherichia coli W3110(ppvuIIM1.9), which is modified in the sequence CAGCTG at the N^4 position of the central cytosine to generate the sequence CAGm4CTG, was treated with. McrBC in the presence of GTP following embedding of the cultured cells in agarose and subsequent lysis in situ to release the DNA, by standard procedures for in situ digestion. DNA carrying this modification was cleaved into many fragments of sizes smaller than 50 kb. From this evidence it was concluded that McrBC recognizes sequences containing N^4 C. In addition, DNA from bacteriophages T4αgt βgt dam^h dam1 and T6αgt, containing 5-hydroxymethylcytosine in place of cytosine and devoid of N^6 -methyladenine, was first treated with EcoRI or SspI and then treated with McrBC in the presence of GTP. Both of these DNAs were cleaved to produce many fragments smaller than 700 bp. From this evidence it was concluded that McrBC recognizes sequences containing hm5C as well m5C and N^4 -methylcytosine.

[2] = Properties of the McrBC cleavage reaction (pH, ratio of components); assay type: biochemical
Description: (a) pH optimum: Activity is detectable when the pH of the reaction is lowered to about 5.8.
Higher or lower ratios reduce cleavage activity.

methylated DNA = assay: McrBC cleavage of plasmid and phage DNA modified by methylases; assay type: biochemical
Description: The recognition sequence of the endonuclease of the present invention may be determined by mapping the locations of McrBC cleavage in various DNAs and comparing the DNA sequences of these regions for homology.
McrBC was also found to cleave M.AluI-methylated doublestranded pUC19 linearized at the AflIII site to generate fragments of 2.25 kb, 1.9 kb, 1.75 kb, 1.275 kb, 1.15 kb, 1.05 kb 0.94 kb, 0.25 kb and 0.27 kb, consistent with cleavage near nucleotides 250, 2300, 1350 and 325. McrBC also cleaves the following: M.HaeIII-methylated (GGmCC) pUC19 linearized at the AflIII site to generate fragments of 2.25 kb, 1.8 kb, 1.25 kb, 1.05 kb, 0.94 kb, 0.5 kb, and 0.45 kb, consistent with cleavage near nucleotide 1600, 2500, 350 and 550; M.HhaI-methylated (GmCGC) pBR322 near nucleotides 434-494 and near nucleotides 594-548; M.HhaI-methylated pUC19 linearized at the AflIII site to generate bands of 2.25 kb, 1.9 kb, 1.15 kb, and 0.94 kb, consistent with cleavage near nucleotides 0 or 60, 2350, 1500 and 620; M.MspI-modified (mCCGG) pUC19 linearized at the AflIII site to generate bands of 1.6 kb, 1.5 kb, 1.0 kb and 0.9 kb, consistent with cleavage near nucleotides 1500 and 1600. In addition, McrBC degrades the following: M.SssI modified (mCG) pBR322 and M.SssI modified pUC19 DNA; agarose-embedded cellular DNA of Escherichia coli carrying ppvuIIM1.9, which is M.PvuII modified ([…]).
pBR322 was modified by M.AluI by standard methods, cleaved with ClaI, and resuspended at 0.1 μg/μl. This substrate was recleaved with one of four restriction endonucleases that cleave once in pBR322 (AflIII, NdeI, ScaI, or SspI). These reactions (0.4 μg DNA in each, cleaved in a volume of 20 μl with the appropriate buffer supplied by New England Biolabs) were phenol extracted, precipitated by addition of ethanol in the presence of salt, and resuspended in dH2 O. Half of each reaction (0.2 μg) was digested with McrBC (1 μl each of McrBL and McrC; McrBL was similar to McrBL fraction iii of EXAMPLE III; McrC was similar to McrC fraction ii of EXAMPLE III). Reactions were loaded onto an agarose gel, with size standards (pBR322 digested with BstNI; NEB #301-1) and the sizes of the various fragments determined from a log-linear plot of cm migration (from a Polaroid photograph) versus known size of size standards. Sizes of fragments larger than the largest size standard were estimated by extrapolation and are indicated by "~". Sizes were lane 1, size standard: 1857, 1060, 929, 383, 121 bp; lane 2, AflIII+McrBC: >4 kb (faint, partial digest product), ~2.5, ~2.2, 1.7, 0.7 kb; lane 3, AflIII: ~2.6, ~2.1 (expected sizes 2.449, 1.912); lane 4, NdeI+McrBC: ~ 2.2, ~2.1, 1.8, 0.4 kb; lane 5, NdeI: ~2.5, ~2.2 kb (expected sizes 2.272, 2.089); lane 6, McrBC: ~2.2, 1.7, 0.93, 0.66, 0.48 kb; lane 7, ScaI: ~3.7, 0.54 (expected sizes 3.822, 0.541); lane 8, ScaI+McrBC: ~2.1, ~1.9, 1.1, 0.66, 0.60, 0.54 kb; lane 9, SspI: ~3.7, 0.28 kb (expected sizes 4.146, 0.215); lane 10, SspI+McrBC: ~2.2, 1.35, 0.66, 0.56 kb.
DNA used was pUC19 linearized at the AflIII site, obtained by standard procedures, and then methylated (0.8 μg) in a reaction containing 8 μl 10 X buffer (for M.AluI, M.HhaI, and M.HpaII this was 10XM.FnuDII buffer: 500 mM Tris[Cl] pH 7.5, 100 mM EDTA, 50 mM β-mercaptoethanol;for M.HaeIII, 500 mM Tris [Cl] pH 8.5; 500 mM NaCl, 10 mM dithiothreitol; for M.MspI, 500 mM Tris, pH 7.5, 500 mM NaCl, 50 mM β-mercaptoethanol; for M.SssI, 500 mM Tris Cl, pH 8.0, 500 mM NaCl, 100 mM EDTA), 8 μl S-adenosylmethionine (32 mM in 5 mM H2 SO4, 10% ethanol) and 4 μl methylase (M.AluI, 5 units/μl; M.HaeIII, 5 units/μl; M.HhaI, 25 units/μl; M.HpaII, 1-5 units/μl,M.MspI, 5 units/μl, M.SssI, 2 units/μl) in a total volume of 82 μl. Methylation reactions were incubated 90 minutes at 37° C., then heat-killed by incubation for 15 minutes at 67°-70° C. These substrates were then distributed to 6 series of 7 tubes for McrBC titration. […]

[3] = test system: DNA Escherichia coli W3110(ppvuIIM1.9); assay: McrBC digestion of agarose-embedded M.PvuII-modified cellular DNA; assay type: biochemical
Procedure: as §1

Substance: McrBC: DNA endonuclease obtainable from Escherichia coli; components McrBL and McrC, substantially free of McrBS
- size of fragments produced by cleavage [1]: smaller than 700 bp
- pH to which the reaction can be lowered with activity detectable [2]: about 5.8
- degradation of substrate DNA (methylated DNA; Dcm-modified (CmCWGG) pBR322, pUC19 or bacteriophage lambda DNA): does not degrade
- cleavage of substrate DNA (methylated DNA; M.AluI-methylated pUC19 linearized at the AflIII site): cleave
- cleavage of substrate DNA (methylated DNA; M.HaeIII-methylated (GGmCC) pUC19 linearized at the AflIII site): cleaves
- cleavage of substrate DNA (methylated DNA; M.HhaI-methylated (GmCGC) pBR322): cleaves
- cleavage of substrate DNA (methylated DNA; M.HhaI-methylated pUC19 linearized at the AflIII site): cleaves
- degradation of substrate DNA (methylated DNA; M.HpaII-modified (Cm5CGG) pBR322, pUC19 or bacteriophage lambda DNA): does not degrade
- cleavage of substrate DNA (methylated DNA; M.MspI-modified (mCCGG) pUC19 linearized at the AflIII site): cleaves
- degradation of substrate DNA (methylated DNA; M.SssI modified (mCG) pBR322 and pUC19): degrades
- degradation of substrate DNA (methylated DNA; pBR322, pUC19 or bacteriophage lambda modified by both Dcm and M.HpaII): does not degrade
- cleavage of substrate DNA (methylated DNA; pBR322 DNA methylated by M.AluI (AGm5CT)): cleave
- size of fragments produced by cleavage ([3]; CAGm4CTG-modified DNA, in the presence of GTP, in situ digestion): smaller than 50 kb
- degradation of substrate DNA ([3]; agarose-embedded cellular DNA of Escherichia coli carrying ppvuIIM1.9, M.PvuII modified (GAm4CGTC)): degrades
